Data taken from ChEMBL document CHEMBL3885861, “Open TG-GATES”.

Species: Rattus norvegicus
Assay: Open TG-GATES - Regimen: Daily Repeat
Format: toxicity, organism-based, Sprague-Dawley
Parameters: regimen Daily Repeat, gender Male, age 6 weeks
Details: in vivo, po, 3 mg/kg, route gavage, dose level Low; for APTT / Bas / Eos / Fbg / Hb / Ht / Lym / MCH / MCHC / MCV / Mono / Neu / PT / Plat / RBC / Ret / WBC: tissue Blood; for KIDNEY_L / KIDNEY_R / KIDNEY_TOTAL: tissue Kidney; for LIVER: tissue Liver; for A/G / ALP / ALT / AST / BUN / CRE / Ca / Cl / DBIL / GLC / IP / K / LDH / Na / PL / RALB / TBIL / TC / TG / TP / gamma-GTP: tissue Plasma

SMILES: C=CCO [ALLYL ALCOHOL]
- TERMINAL_BW (72 h, time 3 day): 238.5 g
- APTT (72 h, time 3 day): 20.1 s
- Bas (72 h, time 3 day): 0%
- Eos (72 h, time 3 day): 1.2%
- Fbg (72 h, time 3 day): 228.4 mg/dL
- Hb (72 h, time 3 day): 13.8 g/dL
- Ht (72 h, time 3 day): 40%
- Lym (72 h, time 3 day): 77.8%
- MCH (72 h, time 3 day): 20.8 pg
- MCHC (72 h, time 3 day): 34.5%
- MCV (72 h, time 3 day): 60.4 fL
- Mono (72 h, time 3 day): 2.8%
- Neu (72 h, time 3 day): 17.8%
- PT (72 h, time 3 day): 11.6 s
- Plat (72 h, time 3 day): 135.9 x10_4/uL
- RBC (72 h, time 3 day): 662 x10_4/ul
- Ret (72 h, time 3 day): 5.2%
- WBC (72 h, time 3 day): 117.9 x10_2/uL
- KIDNEY_L (72 h, time 3 day): 1 g
- KIDNEY_R (72 h, time 3 day): 1 g
- KIDNEY_TOTAL (72 h, time 3 day): 2 g
- LIVER (72 h, time 3 day): 11.5 g
- A/G (72 h, time 3 day): 1.6
- ALP (72 h, time 3 day): 1089.8 IU/L
- ALT (72 h, time 3 day): 37.6 IU/L
- AST (72 h, time 3 day): 63.8 IU/L
- BUN (72 h, time 3 day): 16.2 mg/dL
- CRE (72 h, time 3 day): 0.5 mg/dL
- Ca (72 h, time 3 day): 10.8 mg/dL
- Cl (72 h, time 3 day): 103.2 meq/L
- DBIL (72 h, time 3 day): 0.076 mg/dL
- GLC (72 h, time 3 day): 225.8 mg/dL
- IP (72 h, time 3 day): 7.1 mg/dL
- K (72 h, time 3 day): 4.3 meq/L
- LDH (72 h, time 3 day): 204.6 IU/L
- Na (72 h, time 3 day): 140.4 meq/L
- PL (72 h, time 3 day): 153 mg/dL
- RALB (72 h, time 3 day): 3.4 g/dL
- TBIL (72 h, time 3 day): 0.1 mg/dL
- TC (72 h, time 3 day): 79.2 mg/dL
- TG (72 h, time 3 day): 91.6 mg/dL
- TP (72 h, time 3 day): 5.6 g/dL
- gamma-GTP (72 h, time 3 day): 0.6 IU/L
- TERMINAL_BW ([…], time 7 day): 274.1 g
- TERMINAL_BW ([…], time 14 day): 304.7 g
- TERMINAL_BW ([…], time 28 day): 380.5 g
- APTT ([…], time 7 day): 19.5 s
- Bas ([…], time 7 day): 0%
- Eos ([…], time 7 day): 1%
- Fbg ([…], time 7 day): 220.8 mg/dL
- Hb ([…], time 7 day): 13.7 g/dL
- Ht ([…], time 7 day): 40.3%
- Lym ([…], time 7 day): 80.6%
- MCH ([…], time 7 day): 20.5 pg
- MCHC ([…], time 7 day): 34%
- MCV ([…], time 7 day): 60.4 fL
- Mono ([…], time 7 day): 2.6%
- Neu ([…], time 7 day): 15.8%
- PT ([…], time 7 day): 11.9 s
- Plat ([…], time 7 day): 135 x10_4/uL
- RBC ([…], time 7 day): 667.2 x10_4/ul
- Ret ([…], time 7 day): 5.1%
- WBC ([…], time 7 day): 128.3 x10_2/uL
- APTT ([…], time 14 day): 20.1 s
- Bas ([…], time 14 day): 0%
- Eos ([…], time 14 day): 1.4%
- Fbg ([…], time 14 day): 225.8 mg/dL
- Hb ([…], time 14 day): 14.5 g/dL
- Ht ([…], time 14 day): 42%
- Lym ([…], time 14 day): 85.4%
- MCH ([…], time 14 day): 20.3 pg
- MCHC ([…], time 14 day): 34.6%
- MCV ([…], time 14 day): 58.7 fL
- Mono ([…], time 14 day): 2.4%
- Neu ([…], time 14 day): 10.6%
- PT ([…], time 14 day): 12 s
- Plat ([…], time 14 day): 113.9 x10_4/uL
- RBC ([…], time 14 day): 715.2 x10_4/ul
- Ret ([…], time 14 day): 3.5%
- WBC ([…], time 14 day): 110.3 x10_2/uL
- APTT ([…], time 28 day): 20.8 s
- Bas ([…], time 28 day): 0%
- Eos ([…], time 28 day): 1%
- Fbg ([…], time 28 day): 216.8 mg/dL
- Hb ([…], time 28 day): 15.2 g/dL
- Ht ([…], time 28 day): 43.8%
- Lym ([…], time 28 day): 80%
- MCH ([…], time 28 day): 19.3 pg
- MCHC ([…], time 28 day): 34.7%
- MCV ([…], time 28 day): 55.5 fL
- Mono ([…], time 28 day): 2.2%
- Neu ([…], time 28 day): 16%
- PT ([…], time 28 day): 12 s
- Plat ([…], time 28 day): 106.9 x10_4/uL
- RBC ([…], time 28 day): 787.6 x10_4/ul
- Ret ([…], time 28 day): 2.7%
- WBC ([…], time 28 day): 103.8 x10_2/uL
- KIDNEY_L ([…], time 7 day): 1.1 g
- KIDNEY_R ([…], time 7 day): 1.1 g
- KIDNEY_TOTAL ([…], time 7 day): 2.2 g
- KIDNEY_L ([…], time 14 day): 1.2 g
- KIDNEY_R ([…], time 14 day): 1.1 g
- KIDNEY_TOTAL ([…], time 14 day): 2.3 g
- KIDNEY_L ([…], time 28 day): 1.3 g
- KIDNEY_R ([…], time 28 day): 1.4 g
- KIDNEY_TOTAL ([…], time 28 day): 2.7 g
- LIVER ([…], time 7 day): 13 g
- LIVER ([…], time 14 day): 13 g
- LIVER ([…], time 28 day): 15.8 g
- A/G ([…], time 7 day): 1.6
- ALP ([…], time 7 day): 883.8 IU/L
- ALT ([…], time 7 day): 31.2 IU/L
- AST ([…], time 7 day): 61.4 IU/L
- BUN ([…], time 7 day): 16.2 mg/dL
- CRE ([…], time 7 day): 0.4 mg/dL
- Ca ([…], time 7 day): 10.9 mg/dL
- Cl ([…], time 7 day): 101.6 meq/L
- DBIL ([…], time 7 day): 0.088 mg/dL
- GLC ([…], time 7 day): 221.4 mg/dL
- IP ([…], time 7 day): 6.9 mg/dL
- K ([…], time 7 day): 4.1 meq/L
- LDH ([…], time 7 day): 192 IU/L
- Na ([…], time 7 day): 141 meq/L
- PL ([…], time 7 day): 145.6 mg/dL
- RALB ([…], time 7 day): 3.5 g/dL
- TBIL ([…], time 7 day): 0.1 mg/dL
- TC ([…], time 7 day): 70.4 mg/dL
- TG ([…], time 7 day): 120.6 mg/dL
- TP ([…], time 7 day): 5.8 g/dL
- gamma-GTP ([…], time 7 day): 0.8 IU/L
- A/G ([…], time 14 day): 1.5
- ALP ([…], time 14 day): 736.6 IU/L
- ALT ([…], time 14 day): 39 IU/L
- AST ([…], time 14 day): 60.2 IU/L
- BUN ([…], time 14 day): 16.2 mg/dL
- CRE ([…], time 14 day): 0.4 mg/dL
- Ca ([…], time 14 day): 10.6 mg/dL
- Cl ([…], time 14 day): 102.6 meq/L
- DBIL ([…], time 14 day): 0.07 mg/dL
- GLC ([…], time 14 day): 222.2 mg/dL
- IP ([…], time 14 day): 6.3 mg/dL
- K ([…], time 14 day): 3.6 meq/L
- LDH ([…], time 14 day): 214.8 IU/L
- Na ([…], time 14 day): 141.2 meq/L
- PL ([…], time 14 day): 143 mg/dL
- RALB ([…], time 14 day): 3.5 g/dL
- TBIL ([…], time 14 day): 0.1 mg/dL
- TC ([…], time 14 day): 74.8 mg/dL
- TG ([…], time 14 day): 86.6 mg/dL
- TP ([…], time 14 day): 5.9 g/dL
- gamma-GTP ([…], time 14 day): 1.2 IU/L
- A/G ([…], time 28 day): 1.2
- ALP ([…], time 28 day): 620 IU/L
- ALT ([…], time 28 day): 35.8 IU/L
- AST ([…], time 28 day): 57.8 IU/L
- BUN ([…], time 28 day): 15.2 mg/dL
- CRE ([…], time 28 day): 0.5 mg/dL
- Ca ([…], time 28 day): 10.4 mg/dL
- Cl ([…], time 28 day): 102.8 meq/L
- DBIL ([…], time 28 day): 0.076 mg/dL
- GLC ([…], time 28 day): 218.2 mg/dL
- IP ([…], time 28 day): 5.8 mg/dL
- K ([…], time 28 day): 3.7 meq/L
- LDH ([…], time 28 day): 210.8 IU/L
- Na ([…], time 28 day): 139.8 meq/L
- PL ([…], time 28 day): 138.6 mg/dL
- RALB ([…], time 28 day): 3.4 g/dL
- TBIL ([…], time 28 day): 0.1 mg/dL
- TC ([…], time 28 day): 65.8 mg/dL
- TG ([…], time 28 day): 114.4 mg/dL
- TP ([…], time 28 day): 6.2 g/dL
- gamma-GTP ([…], time 28 day): 0.6 IU/L
